Series [1] is described as follows: (§1) Evaluation of pharmacokinetic parameters for Drosporine following multiple co-administration of 3 mg Drosporine tablets and […] ethinyl estradiol to 12 healthy female subjects. In kind it is ADME, organism-based. The arrangement: dose 3 mg, route oral. The following applies: human, in vivo, dose 3 mg, dosed compound id 30, dosed compound name DROSPIRENONE, gender female, regimen Once daily, route oral, study dosing duration 21 days, tissue Serum.

The subject of another series is Homo sapiens. The series is described as §1. In kind it is ADME, organism-based. The arrangement: dose 3 mg, route oral. The settings on record: in vivo, po, dosed compound id 30, dosed compound name DROSPIRENONE, gender female, regimen Once daily, study dosing duration 21 days, tissue Serum.
[2] abbreviates: dose 3 mg, sampling time1 21 day.

Where “and” joins values, the source holds several entries; their conditions need not be identical. Equal values may be shown once.

Usually Tmax stands for the time from dosing to the highest level. By half-life is commonly meant how long it takes for the measured level to halve. Broadly, the Cmax is the peak of the concentration-time curve.

With `C[C@]12CCC(=O)C=C1[C@@H]1C[C@@H]1[C@H]1[C@@H]3[C@@H]4C[C@@H]4[C@@]4(CCC(=O)O4)[C@@]3(C)CC[C@@H]12` [DROSPIRENONE], the Tmax in series [1] (sampling time1 1 day) was 1.7 h. Further, in series [1] (sampling time1 21 day), the half-life is 32.5 h. Besides, in the series with Homo sapiens (setting [2]), the Tmax is 1.8 h and 1.6 h; the t1/2 is 31.4 h. Besides, in the series on Homo sapiens (sampling time1 1 day), the “AUC(0-24)” value is 288 ng·h/mL and the Cmax is 36.9 ng/mL. In the series on Homo sapiens (sampling time1 21 day), the “AUC(0-24)” value was 957 ng.hr/mL [middle of 4 runs] and the Cmax is 84.2 ng/mL [middle of 4 runs].

The values are drawn from ChEMBL document CHEMBL3832088, “DailyMed|setid=abbf31eb-9966-411a-9c5d-91025ff7a782 | ZARAH- drospirenone and ethinyl estradiol | Watson Pharma, Inc”.
